Here are results for seven molecules from PubChem BioAssay (NCI).

“And” between values parts separate entries of the source, which are not always exact repeats. Identical values can stand only once.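 Protocol summary: plate cells (96-well), add compound at 5 concentrations, incubate 48 h, interpolate endpoints linearly. GI50 marks 50% less growth. TGI marks complete inhibition of growth.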

Test systems include ACHN renal; NCI-H522 lung; NCI/ADR-RES ovarian; IGROV1 ovarian; MOLT-4 leukemia; SK-MEL-28 melanoma; OVCAR-5 ovarian; OVCAR-3 ovarian; HOP-92 NSCLC; A498 renal.
Common to all, as to assay: inhibition of tumour cell growth, NCI panel, 48 h

As for `CN1CCN(CCCNc2nc3ccc(Oc4ccc(NC(=O)Nc5cc(C(F)(F)F)ccc5F)cc4)cc3[nH]2)CC1`, the GI50 in the assay with ACHN renal is 17.5 µM; in the assay on NCI-H522 lung it was 3.8 µM; with NCI/ADR-RES ovarian, > 25 µM; with IGROV1 ovarian it was 9.62 µM; in the assay on MOLT-4 leukemia, 4.83 µM; in the assay with SK-MEL-28 melanoma, 4.24 µM. In addition, the GI50 with OVCAR-5 ovarian is 6.75 µM; with OVCAR-3 ovarian, 4.49 µM; in the assay on HOP-92 NSCLC it was 2.91 µM; with A498 renal it was 2.93 µM. The TGI in the assay with ACHN renal was > 25 µM; in the assay on NCI-H522 lung, 7.27 µM; in the assay on NCI/ADR-RES ovarian it was > 25 µM; with IGROV1 ovarian, > 23.9 µM; with MOLT-4 leukemia it was 9.89 µM; in the assay on SK-MEL-28 melanoma it was 7.73 µM. Besides, the TGI with OVCAR-5 ovarian was > 20.7 µM; with OVCAR-3 ovarian it was 9.65 µM; in the assay on HOP-92 NSCLC it was 12.1 µM; with A498 renal, > 18.9 µM.

For the molecule `c1ccc(Sc2ccc(Cc3nc4cc5ccccc5cc4[nH]3)cc2)cc1`, the GI50 with ACHN renal is 13.2 µM; with NCI-H522 lung it was 9.69 µM; in the assay on NCI/ADR-RES ovarian, 15.5 µM; in the assay on IGROV1 ovarian it was 27.1 µM; in the assay with MOLT-4 leukemia, 8.18 µM; in the assay with SK-MEL-28 melanoma, 37.7 µM. Besides, the GI50 in the assay on OVCAR-5 ovarian was 17.9 µM; in the assay on OVCAR-3 ovarian, 8.34 µM; in the assay with HOP-92 NSCLC, 6.33 µM; in the assay on A498 renal, 21.5 µM. The TGI with ACHN renal was > 75.1 µM; in the assay with NCI-H522 lung, > 62.9 µM; with NCI/ADR-RES ovarian, > 62.7 µM; in the assay on IGROV1 ovarian, > 100 µM; with MOLT-4 leukemia it was > 100 µM; in the assay with SK-MEL-28 melanoma it was > 100 µM. Besides, the TGI with OVCAR-5 ovarian stood at 98.8 µM; with OVCAR-3 ovarian, 39.8 µM; in the assay on HOP-92 NSCLC, 66.3 µM; in the assay with A498 renal, 57.8 µM.

With `CC1=CC(=O)C=CC1=O`, the GI50 in the assay with ACHN renal is 15.9 µM and 2.94 µM; with NCI-H522 lung, 11.2 µM and 1.67 µM; in the assay on NCI/ADR-RES ovarian, 20.6 µM and 24 µM; with IGROV1 ovarian it was 18.1 µM and 18.2 µM; in the assay on MOLT-4 leukemia, 3.29 µM and 3.22 µM; with SK-MEL-28 melanoma, 16.9 µM and 17.9 µM. The GI50 in the assay on OVCAR-5 ovarian is 21.4 µM; in the assay on OVCAR-3 ovarian, 3.96 µM; with HOP-92 NSCLC, 16.7 µM; in the assay with A498 renal it was 30.6 µM and 51.5 µM. The TGI is 29.4 µM and 10.1 µM with ACHN renal; 24 µM and 4.1 µM with NCI-H522 lung; 43 µM and 64.4 µM with NCI/ADR-RES ovarian; 43 µM with IGROV1 ovarian; 30.8 µM and 32.6 µM in the assay on SK-MEL-28 melanoma; 39.5 µM in the assay with OVCAR-5 ovarian. Besides, the TGI in the assay on OVCAR-3 ovarian is 13.3 µM; with HOP-92 NSCLC it was 33.4 µM; in the assay with A498 renal, 96 µM and 144 µM.

Take `COC(=O)Nc1nc2ccc(C3(c4ccc(F)cc4)OCCO3)cc2[nH]1`: the GI50 in the assay on ACHN renal was 0.917 µM; with NCI-H522 lung, 0.222 µM; in the assay on NCI/ADR-RES ovarian it was 0.28 µM; with IGROV1 ovarian it was 1.29 µM; with MOLT-4 leukemia, 0.573 µM; with SK-MEL-28 melanoma, 0.769 µM. Also, the GI50 in the assay with OVCAR-5 ovarian was 0.614 µM; with OVCAR-3 ovarian, 0.301 µM; in the assay with HOP-92 NSCLC, 0.268 µM; in the assay on A498 renal it was 0.133 µM. Besides, the TGI was > 66.6 µM with ACHN renal; 2.65 µM in the assay on NCI-H522 lung; > 35.4 µM with NCI/ADR-RES ovarian; > 100 µM with IGROV1 ovarian; > 100 µM in the assay on MOLT-4 leukemia; > 100 µM in the assay on SK-MEL-28 melanoma. In addition, the TGI is > 100 µM in the assay on OVCAR-5 ovarian, 58 µM in the assay on HOP-92 NSCLC and 2.87 µM in the assay with A498 renal.

For `O=C1c2cccnc2-c2nc(-c3ccc(Cl)cc3)cc3c2c1nc1ccccc13`, the GI50 is 15.9 µM in the assay with ACHN renal; 21 µM with NCI-H522 lung; 55.2 µM in the assay with NCI/ADR-RES ovarian; 32.3 µM with IGROV1 ovarian; 51.7 µM with MOLT-4 leukemia; 34.7 µM in the assay with SK-MEL-28 melanoma. Also, the GI50 in the assay with OVCAR-5 ovarian was > 100 µM; with OVCAR-3 ovarian, 24 µM; with HOP-92 NSCLC it was 22.9 µM; with A498 renal it was 33.5 µM. Also, the TGI is 33.7 µM in the assay with ACHN renal; > 100 µM in the assay on NCI-H522 lung; > 100 µM with NCI/ADR-RES ovarian; > 100 µM with IGROV1 ovarian; > 100 µM in the assay on MOLT-4 leukemia; > 100 µM in the assay on SK-MEL-28 melanoma. Also, the TGI with OVCAR-5 ovarian was > 100 µM; with OVCAR-3 ovarian, 75 µM; in the assay on HOP-92 NSCLC, 74.1 µM; in the assay with A498 renal, > 100 µM.

`CC(=O)O[C@H]1CCC2[C@@H]3CC[C@]4(C)CC(=O)C=C[C@]4(C)C3CC[C@@]21C` (stereo partly drawn): the TGI in the assay with ACHN renal was > 100 µM; with NCI-H522 lung it was 76.9 µM; in the assay on NCI/ADR-RES ovarian it was 40.5 µM; in the assay on IGROV1 ovarian it was 58.3 µM; with MOLT-4 leukemia it was 47.9 µM; in the assay on SK-MEL-28 melanoma, 33.9 µM. Besides, the TGI in the assay on OVCAR-5 ovarian was > 100 µM; in the assay with OVCAR-3 ovarian, 31.6 µM; with HOP-92 NSCLC, > 100 µM; in the assay on A498 renal, > 100 µM.

`CCCCCCCCCCCCCCCC(=O)OCC(C[As](=O)(O)O)OC(=O)CCCCCCCCCCCCCCC` (stereo not drawn): the TGI with ACHN renal, in the assay with NCI-H522 lung, with NCI/ADR-RES ovarian, with IGROV1 ovarian, in the assay with MOLT-4 leukemia and with SK-MEL-28 melanoma was > 100 µM in each case. For the same molecule, the TGI in the assay with OVCAR-5 ovarian, with OVCAR-3 ovarian, in the assay on HOP-92 NSCLC and with A498 renal was > 100 µM in each case.
